{"source": "patent US6903130B1", "about": "“Pyrrolidineacetamide derivative alone or in combination for treatment of cns disorders” (UCB S.A., priority 1999, dated 2005)", "key": {"epilepsy": {"test_system": "epilepsy", "conditions": "in vivo; cited from earlier work"}, "[1]": {"test_system": "diabetic rats (streptozocin-induced diabetic neuropathy)", "test": "Randall and Selitto test, mechanical hyperalgesia in streptozotocin diabetic rats", "assay_type": "in vivo, rat", "from_the_text": "In order to study the activity of levetiracetam with respect to chronic or neuropathic pain, the Applicant carried out a series of experiments based on the Randall test “A method for measurement of analgesic activity on inflamed tissue; Arch. Int. pharmacodyn., 1957, CXI, No4. P 409-419”. By virtue of this protocol, it was possible to determine the ability of levetiracetam to correct hyperalgesia secondary to induction of a neuropathic problem of metabolic origin in a rodent.\nThe diabetic neuropathy thereby induced allowed the correction of the hyperalgesia caused by the use of levetiracetam to be measured.\nThe animals used for these experiments were male Sprague-Dawley rats (Charles River, France), weighing 250-280 grams (g), which had undergone induction of diabetes one week after receipt. Male Sprague-Dawley rats (200-220 g) received one interperitoneal injection of streptozocin (75 mg/kg, i.p.) (Zanosar, Upjohn, France) dissolved in distilled water. Hyperglycaemia was confirmed one week after induction by determining the quantity of blood glucose (caudal puncture) using a Dextrostix reactive strip (Ames) read using a calorimeter (Ames Division, Miles Laboratoires, France). Animals with more than 14 millimoles (mM) were considered to be diabetic. The pain thresholds were determined 3 weeks after induction of diabetes.\nThis model was used in accordance with the description in COURTEIX et al., “Streptozocin-induced diabetic rats. Behavioural evidence for a model of chronic pain” Pain (1993), vol. 53, p81-88. The study was performed using the following compounds: • […]: (Laboratories UCB), dissolved in distilled water. • CARBAMAZEPINE: (Sigma), dissolved in hydroxy propel methylcellulose.\nAs has already been mentioned above, the test explained below was performed to stimulate a reaction in the animal with a mechanical nociceptive stimulus to a hind paw. An increasing pressure was applied using an analgesia meter (Ugo Basile, type 7200), until a cry was emitted which was considered to be the pain threshold, expressed in grams.\nAfter determining the base thresholds, the animals received the study treatments (vehicle, levetiracetam, 17, 54, 95.2 and 120 mg/kg, carbamazepine, 10 and 30 mg/kg) administered intraperitoneally (i.p.) using the equal block method to avoid any chronobiological influence. The effects of different treatments were thus determined during the same time period. The reaction thresholds were measured 15, 30, 45, 60, 90, 120 and 180 minutes (min) after administration. All of the experiments were performed blind with 8 different animals per treatment.\nThe results are expressed as means±standard error of mean (S.E.M.).\nThe dose which could overcome 50% of the hyperalgesia induced by diabetes was calculated as the “anti-hyperalgesic dose effective 50”.\nStatistical comparison was carried out by means of a two-way analysis of variance followed by Fischer's PLSD multiple comparison test to analyze the temporal effect."}, "sound-sensitive mice": {"test_system": "sound-sensitive mice", "test": "Rotarod test in sound-sensitive mice", "conditions": "combined treatment with 5.5 mg/kg levetiracetam"}, "[2]": {"test": "Plasma and brain levels after oral dosing in sound-sensitive mice", "conditions": "alone or in combination with levetiracetam", "protocol": "Male genetically sound-sensitive mice (17-30 g; N=10), derived from a DBA strain originally selected by Dr Lehmann of the Laboratory of Acoustic Physiology (Paris) and bred in the UCB Pharma Sector husbandry unit since 1978, were submitted to the induction of audiogenic seizures. Levetiracetam (5.4 mg/kg) and sodium valproate (166.2 mg/kg) were administered orally, alone or in combination, 60 minutes before the induction of audiogenic seizures. For testing audiogenic seizure, the mice were placed in the cages, one mouse per cage, in the sound-attenuated chamber. After a period of habituation of 30 seconds, the acoustic stimulus (90 dB, 10-20 kHz) was delivered for 30 seconds via the loud speakers. During this interval, the mice were observed and the presence of the 3 phases of the seizure activity, namely wild running, clonic and tonic convulsions, was recorded.\nIn all animals, blood samples were collected immediately after the seizure test (I h after dosing) by cardiac puncture under light carbon dioxide anesthesia, into heparinised microtubes. […] Levetiracetam was measured in plasma and brain samples by validated gas chromatography assay with mass detection. With sodium valproate, fluorescence polarization immunoassays were used.\nThe mean value plus standard deviation was calculated for plasma and brain concentrations of valproate and levetiracetam, and for the brain/plasma ratio. […]"}}, "note": "Marks after values point to notes of the source that are not given here."}
{"molecule": "CC[C@H](C(N)=O)N1CCCC1=O", "note": "[(R)-(−)-α-ethyl-2-oxo-1-pyrrolidine-acetamide]", "values": [{"measurement": "activity in the treatment of epilepsy (in words)", "setting": "epilepsy", "result": "completely devoid of activity"}]}
{"molecule": "NC(=O)N1c2ccccc2C=Cc2ccccc21", "note": "[Carbamazepine, reference compound]", "values": [{"measurement": "vocalization threshold", "setting": "[1]; carbamazepine 10 mg/kg i.p. group, before diabetes (baseline), mean (SEM)", "result": "300.9 (12.31) g"}, {"measurement": "vocalization threshold", "setting": "[1]; carbamazepine 10 mg/kg i.p., 15 min after injection", "result": 217.5, "unit": "g"}, {"measurement": "vocalization threshold", "setting": "[1]; carbamazepine 10 mg/kg i.p., 30 min after injection", "result": "333.8 (14.66)* g"}, {"measurement": "vocalization threshold", "setting": "[1]; carbamazepine 10 mg/kg i.p., 45 min after injection", "result": 273.8, "unit": "g"}, {"measurement": "vocalization threshold", "setting": "[1]; carbamazepine 10 mg/kg i.p., 60 min after injection", "result": "206.3 (10.51)* g"}, {"measurement": "vocalization threshold", "setting": "[1]; carbamazepine 10 mg/kg i.p., 90 min after injection", "result": "187.5 (8.02) g"}, {"measurement": "vocalization threshold", "setting": "[1]; carbamazepine 10 mg/kg i.p., 120 min after injection", "result": "174.4 (3.95) g"}, {"measurement": "vocalization threshold", "setting": "[1]; carbamazepine 10 mg/kg i.p., 180 min after injection", "result": "174.4 (3.95) g"}, {"measurement": "vocalization threshold", "setting": "[1]; carbamazepine 10 mg/kg i.p., after diabetes, 0 min (base threshold)", "result": "170.6 (5.26) g"}, {"measurement": "vocalization threshold", "setting": "[1]; carbamazepine 30 mg/kg i.p. group, before diabetes (baseline), mean (SEM)", "result": "280.3 (9.92) g"}, {"measurement": "vocalization threshold", "setting": "[1]; carbamazepine 30 mg/kg i.p., 15 min after injection", "result": 450.0, "unit": "g"}, {"measurement": "vocalization threshold", "setting": "[1]; carbamazepine 30 mg/kg i.p., 30 min after injection", "result": "425.6 (39.98)* g"}, {"measurement": "vocalization threshold", "setting": "[1]; carbamazepine 30 mg/kg i.p., 45 min after injection", "result": 311.3, "unit": "g"}, {"measurement": "vocalization threshold", "setting": "[1]; carbamazepine 30 mg/kg i.p., 60 min after injection", "result": "230.6 (24.86)* g"}, {"measurement": "vocalization threshold", "setting": "[1]; carbamazepine 30 mg/kg i.p., 90 min after injection", "result": 196.9, "unit": "g"}, {"measurement": "vocalization threshold", "setting": "[1]; carbamazepine 30 mg/kg i.p., 120 min after injection", "result": "174.4 (7.99) g"}, {"measurement": "vocalization threshold", "setting": "[1]; carbamazepine 30 mg/kg i.p., 180 min after injection", "result": "170.6 (6.30) g"}, {"measurement": "vocalization threshold", "setting": "[1]; carbamazepine 30 mg/kg i.p., after diabetes, 0 min (base threshold)", "result": "152.8 (8.01) g"}, {"measurement": "spontaneous motor activity (not quantified)", "setting": "[1]; carbamazepine 30 mg/kg i.p., delayed effect, 30 min after injection", "result": "reduction in spontaneous motor activity"}, {"measurement": "Effect on diabetic hyperalgesia (in words)", "setting": "[1]; i.p., diabetic rats", "result": "complete reversal of diabetic hyperalgesia for the 2 doses used"}]}
{"molecule": "CNC1=Nc2ccc(Cl)cc2C(c2ccccc2)=[N+]([O-])C1", "note": "[chlordiazepoxide]", "values": [{"measurement": "impairment of rotarod performance under combined treatment (in words)", "setting": "sound-sensitive mice", "result": "not affected"}]}
{"molecule": "O=C1CN=C(c2ccccc2Cl)c2cc([N+](=O)[O-])ccc2N1", "note": "[clonazepam]", "values": [{"measurement": "impairment of rotarod performance under combined treatment (in words)", "setting": "sound-sensitive mice", "result": "not affected"}]}
{"molecule": "CCC1(c2ccccc2)C(=O)NC(=O)NC1=O", "note": "[phenobarbital, reference compound]", "values": [{"measurement": "plasma concentrations and brain/plasma ratio alone vs in combination with levetiracetam (in words)", "setting": "[2]", "result": "unchanged"}, {"measurement": "impairment of rotarod performance under combined treatment (in words)", "setting": "sound-sensitive mice", "result": "not affected"}]}
